For the series the following is noted: mice, 75 mg/kg i.p., averaged data of three experiments, model fit.

Procedure: Enzyme nanosensor solutions were prepared using concentrated O2NS nanosensors (25 μL, ˜10^13 particles) and DAO (50 μL, 1.75IU). As a control, O2NS injections were made with concentrated nanosensors (25 μL) diluted with 50 μL of PBS. […] Mice were weighed, anesthetized with isoflurane (2% isoflurane, 98% oxygen), and placed in the IVIS imager. Two intradermal 30 μL injections of nanosensors were made along the midline of the back. Enzyme nanosensor was injected posterior to O2NS. After injection the animals are imaged every 30 seconds for 30 minutes. […] The mice were imaged for an additional 45 minutes to 1 hour. All animals were sacrificed after the end of the experiment. Three separate experiments were performed with new mice and fresh batches of nanosensor solution.
For data analysis, a region of interest encompassing the injection area was selected and intensity was recorded. […] The difference in normalized signals between the enzymatic nanosensors and O2NS was calculated for each mouse. […] The average data was then fit to a single compartment open model: Equation (1)
Where I is the normalized fluorescent intensity difference, A is a scaling parameter, ka and ke are the absorption and elimination rate constants and tlag is the lag time. The parameters ka, ke, and tlag were fit using the method of residuals and A was fit using least squares minimization for plotting purposes.

With `Cl.Cl.NCCc1c[nH]cn1` [histamine, histamine dihydrochloride], the lag time stood at 4.8 min.
